The test system of one test is PGC-1α/β KO cells. The test can be described thus: Pyruvate supplementation of PGC-1α/β KO cells with or without DMOG, mitochondrial-encoded gene expression. The note with it: DMOG added to pyruvate-treated cells. It is filed as cell-based, mouse. From the text:
FIGS. 21A-21N provide additional data related to the content of FIG. 14. FIG. 21A depicts HIF-1α target genes (PGK-1, Glut1, PDK1 and Vegfa) expression in gastrocnemius of WT and SIRT1 KO mice. Relative expression values were normalized to WT mice (n=5). FIG. 21B depicts hypoxia response element activity in primary myoblasts isolated from WT and SIRT1 KO mice and treated with or without DMOG. Relative luciferase activity was normalized to WT cells (n=6, *p<0.05 versus WT). FIG. 21C depicts a representative immunoblot of HIF-1a and Tubulin in PGC-1α/β KO myotubes treated with adenovirus overexpressing SIRT1 or empty vector as well as treatment with DMSO or with HIF stabilizing compound DMOG. FIG. 21D depicts NAD+/NADH ration measured in primary WT myoblasts treated with either 10 mM pyruvate, 10 mM lactate or vehicle for 24 h (n=4). […] FIG. 21J depicts mitochondrial DNA content analyzed by qPCR in control, HIF-1α DPA or HIF-2α DPA C2C12 cells treated with adenovirus overexpressing SIRT1 or empty vector. […] FIG. 21K depicts ARNT mRNA analyzed by qPCR in C2C12 cells infected with ARNT or nontargeting shRNA. […] FIG. 21L depicts mitochondrial DNA content analyzed by qPCR in C2C12 cells infected with ARNT or nontargeting shRNA. […] FIG. 21M depicts ND1, Cytb, COX1 and ATP6 mRNA analyzed by qPCR in C2C12 cells infected with ARNT or nontargeting shRNA. […] Values are expressed as mean±SEM. […]

The test system of a further test is SIRT1-tg mice. Put plainly: DMOG treatment of SIRT1-tg mice, gastrocnemius readouts. It is filed as in vivo, mouse. The note with it: DMOG 300 mg/kg IP per day, 5 days. Here is the method: Whole body SIRT1 overexpressor (SIRT1-tg) mice of 6 months of age were given interperitoneal (IP) injections of 300 mg DMOG/kg body weight per day or the equivalent volume of PBS for 5 consecutive days.
ATP content was measured with a commercial kit according to the manufacturer's instructions (Roche).
RNA from skeletal muscle tissue and C2C12 cells were extracted with RNeasy mini kit (Qiagen) according to the instructions and quantified using the NanoDrop 1000 spectrophotometer (Thermo Scientific). cDNA was synthesized with the iSCRIP cDNA synthesis kit (BioRad) using 600 ng of RNA. Quantitative RT-PCR reactions were performed using 1 μM of primers and LightCycler® 480 SYBR Green Master (Roche) on an LightCycler® 480 detection system (Roche). Calculations were performed by a comparative method (2-ΔCT) using 18S as an internal control. For mtDNA analysis, total DNA was extracted with DNeasy blood and tissue kit (Qiagen). mtDNA was amplified using primers specific for the mitochondrial cytochrome c oxidase subunit 2 (COX2) gene and normalized to genomic DNA by amplification of the ribosomal protein s18 (rps18) nuclear gene. Primers were designed using the IDT software (IDT) and the primer sequences can be found in Table 1.
Protein extracts from tissue or C2C12 cells were obtained by lysis in ice-cold lysis buffer (150 mM NaCl, 10 mM Tris HCl (pH 7.4), 1 mM EDTA, 1 mM EGTA, 1% Triton X-100, 0.5% NP-40) supplemented with a cocktail of protease and phosphatase inhibitors (Roche). Protein content was determined by the Bradford protein assay (Biorad), and 50 μg proteins were run on SDS-PAGE under reducing conditions. The separated proteins were then electrophoretically transferred to a polyvinylidene difluoride membrane (Perkin-Elmer). […] The immunostaining was detected using horseradish peroxidase-conjugated anti-rabbit or anti-mouse immunoglobulin for 1 h at room temperature.

Consider `COC(=O)CNC(=O)C(=O)OC` [DMOG, dimethyloxaloylglycine], for which the “effect on NAD+ mediated increases in mitochondrial-encoded genes” value in the test on PGC-1α/β KO cells is given as “inhibited”. Also, in the test on SIRT1-tg mice, the “HIF-1α protein (immunoblot)” value is recorded as “increase HIF-1α”, the “effect on the increase in ATP levels observed in SIRT1-tg mice” value is recorded as “abolished the increase” and the “effect on the increase in expression of mitochondrial-encoded genes observed in SIRT1-tg mice” value is listed as “abolished the increase”.

The record behind these values is patent US20200291100A1, “TREATMENT OF AGE-RELATED AND MITOCHONDRIAL DISEASES BY INHIBITION OF HIF-1 ALPHA FUNCTION” (President and Fellows of Harvard College, priority 2012, published 2020).
